Assay results taken from patent US20110166196A1, “TREATMENT AND PROPHYLAXIS OF EPILEPSY AND FEBRILE SEIZURES” (priority 2008, published 2011).

Legend:
[1] = target: T1, TRPV1 channels (Mus musculus, UniProt Q704Y3); assay: Heat-ramp evoked inward current and depolarization in CA1 pyramidal neurons of wild-type mice; assay type: cell-based
T1 construct: whole-cell recordings from acutely prepared brain slices from wild type C57BL/6 mice; from tissue; host or cells: acute coronal hippocampal slices from P14-P20 wild-type C57BL/6 mice: CA1 pyramidal neurons
T1 sequence (Q704Y3 whole entry): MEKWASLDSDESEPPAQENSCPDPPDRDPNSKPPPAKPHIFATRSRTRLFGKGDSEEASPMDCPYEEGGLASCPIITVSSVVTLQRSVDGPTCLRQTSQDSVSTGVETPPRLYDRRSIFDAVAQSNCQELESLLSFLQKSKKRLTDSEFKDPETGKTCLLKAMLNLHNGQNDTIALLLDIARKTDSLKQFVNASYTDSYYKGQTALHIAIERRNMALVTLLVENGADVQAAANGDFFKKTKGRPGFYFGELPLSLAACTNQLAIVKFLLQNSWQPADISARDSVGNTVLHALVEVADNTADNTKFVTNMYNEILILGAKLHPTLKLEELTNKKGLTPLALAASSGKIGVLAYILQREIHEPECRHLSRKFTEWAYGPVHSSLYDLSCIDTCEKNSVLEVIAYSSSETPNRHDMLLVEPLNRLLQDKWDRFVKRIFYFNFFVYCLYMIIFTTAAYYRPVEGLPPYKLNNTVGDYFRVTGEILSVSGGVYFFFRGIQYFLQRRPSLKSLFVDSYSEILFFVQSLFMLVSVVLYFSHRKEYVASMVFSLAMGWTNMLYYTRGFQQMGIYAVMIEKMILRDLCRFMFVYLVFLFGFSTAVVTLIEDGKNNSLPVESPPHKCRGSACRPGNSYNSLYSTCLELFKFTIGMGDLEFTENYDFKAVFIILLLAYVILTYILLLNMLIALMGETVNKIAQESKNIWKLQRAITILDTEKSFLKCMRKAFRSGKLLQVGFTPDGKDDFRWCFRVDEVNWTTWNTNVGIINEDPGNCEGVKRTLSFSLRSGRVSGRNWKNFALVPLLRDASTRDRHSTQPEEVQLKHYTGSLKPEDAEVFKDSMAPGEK

[2] = system: area CA3 stratum pyramidale; assay: Heat-induced multi-unit activity (MUA) in hippocampal slices, field-potential recording; assay type: cell-based, mouse; settings: wild-type slices pre-treated with capsazepine; p<0.05 vs untreated wild-type, n=27
Description: Coronal brain slices, 300-350 μm, were obtained from mice aged postnatal day 14-20 as previously described (Gibson et al., 2008; Gibson et al., 1999; McMahon & Kauer, 1997). Bathing perfusate was identical to previous except where indicated. A Haas-type interface chamber was used for field-potential recordings. Glass micropipettes were filled with 0.9% NaCl (resistance 400-700 kΩ). Simultaneous recordings were made in stratum pyramidale of CA1 and CA3 of each slice. Activity was recorded at 30° C. (5 min), ramped to 42° C. (5 min) and returned to 30° C. (10 min). Signals were amplified, digitally recorded at 10 kHz and stored (LabView).
For field-potential recordings, coronal slices, 350 μm thick, were obtained from P14-15 mice as previously described (Gibson et al., 2008; Gibson et al., 1999; McMahon & Kauer, 1997). Slices were kept at room temperature for at least 30 min until transferred to a 30° C. recording chamber. […] For all field-potential recordings, activity was recorded at 30° C. […] Signals were amplified, digitally recorded at 10 kHz and stored using an in-house LabView based program.
Multi-unit activity (MUA) was high-pass filtered at 500 Hz and spikes were detected using threshold-crossing criteria. […]
All combined data are expressed as mean±the standard error of the mean (s.e.m.). […]

[3] = system: excitatory synapses on interneurons; assay: Drug-induced depression of EPSC amplitudes in slices from TRPV1-/- and C57BL/6 wild-type mice; assay type: cell-based, mouse; settings: capsaicin 1 μM
Description: The basic methods have been detailed previously (McMahon and Kauer, 1997). Sprague-Dawley rats (15-22 days old) were used in the majority of experiments. In addition, we used TRPV1^−/− mice (Caterina et al., 2000) and wild-type C57BL/6 mice aged between 15 and 21 days (Jackson Laboratory). The TRPV1^−/− mice we used have been backcrossed at least 10 times onto a C57BL/6 background and were obtained from homozygous breeding pairs. Control mice were therefore not littermates but were age-matched, wild-type C57BL/6 animals received from the same supplier in the same shipment. All animal protocols were approved by the Brown University Institutional Animal Care and Use Committee. For mouse experiments, only one brain slice per mouse was used for each experiment, so that reported ‘n’ numbers represent the number of animals. Animals were anaesthetized using halothane or isoflurane and quickly decapitated. […]
Slices were continuously perfused with ACSF warmed to 28-32° C. at a flow rate of 1-2 ml/min. […] EPSCs were stimulated at 0.1 Hz (100 μsec) using a bipolar stainless steel stimulating electrode placed in stratum radiatum at least 200 μm from the recorded cell. […] In early experiments, we measured rectification ratios of EPSCs evoked at +40 mV/−60 mV in the presence of 50 μM D-AP5, measured at the time of peak inward synaptic current seen at −70 mV (Lei and McBain, 2004).
The maximal initial slope of fEPSPs was calculated using a LabVIEW-based program (National Instruments). The peak amplitude of each EPSC was measured by comparing a 10 msec time period immediately prior to the stimulus with the peak of the EPSC using this program as well. Occasionally polysynaptic responses were evoked, and in these cases, only the initial monosynaptic event was measured. To positively identify LTD, EPSCs measured every 10 seconds were averaged in 1 minute intervals. […]

| heat-induced change of membrane potential in CA1 neurons ([1]; 2 μM intracellular capsazepine, current clamp, ramp 30 to 42° C., absence 19.7±4.5 mV, n=6) | effect on heat-evoked current in CA1 pyramidal neuron ([1]; bath-applied capsazepine 10 μM, voltage clamp, heat ramp) | Compound | incidence of heat-induced increased MUA in area CA3 [2] | EPSC amplitudes after 10-15 minutes in capsaicin in C57BL/6 wild-type mice ([3]; C57BL/6 wild-type mice, n=6) | EPSC amplitudes after 10-15 minutes in capsaicin in TRPV1−/− mice ([3]; TRPV1−/− mice, n=8) |
| --- | --- | --- | --- | --- | --- |
| 1.0±0.7 mV | blocked | Oc1cc2c(cc1O)CN(C(=S)NCCc1ccc(Cl)cc1)CCC2 [capsazepine] | mimicked trpv1^−/− incidence rates of increased MUA in area CA3 |  |  |
|  |  | COc1cc(CNC(=O)CCCCC=CC(C)C)ccc1O [capsaicin, 8-methyl-N-vanillyl-6-nonenamide] |  | 50.5±12.1 % of pre-drug control values | 100.7±6.6 % of pre-drug control values |
